# Laboratory results: patent publication US4362870A, “Selective opioid receptor alkylating agents” (priority 1981, dated 1982)
# Where two headings read alike, the source gives them in different places.
# What was measured:
# [1] = tested on: electrically stimulated guinea pig ileal longitudinal muscle strip; assay: Guinea pig ileum: morphine IC50 ratio before and after exposure to the test compound (Examples V-XIV); assay type: cell-based; details: 30 min exposure, 20 washes
# Method: Details of the assay are found in Rang, Br. J. PHarmacol., 22, 356 (1964).
# of the electrically stimulated guinea pig ileal longitudinal muscle strip
# (treated) exposure (30 min) of the ileal preparation to the test compound
# (2 × 10^-8 M) followed by 20 washes are expressed as a ratio, […]
# [2] = background statement; cited from earlier work
# [3] = tested on: electrically stimulated guinea pig ileal longitudinal muscle; assay: cells; assay type: cell-based; details: for IC50 Ratio FNA/Control: agonist IC50 after FNA (2 × 10^-8, 30 min, 20 washes) / control
# [4] = tested on: β-endorphin-induced stimulation of food intake; details: prior report; cited from earlier work
# effects of morphine [5] = assay: Duration of inhibitory effect on morphine (species not given); assay type: in vivo
# From the text: (§1) The vertical bars represent 95% confidence intervals of the ED50 values.
# [6] = tested on: analgesic response of mice; assay: Analgesic response of mice to FNA; assay type: in vivo, mouse
# Method: FIG. 2 is a graphic representation of the analgesic response of mice to FNA.
# The analgesic response of mice to FNA was tested.
# morphine analgesia = assay: Duration of inhibitory effect on morphine analgesia, mouse; assay type: in vivo; details: HCl salt; 4.8 nmol/mouse intracebroventricular
# Method: At 4.8 nmol/mouse (intracebroventricular) or at 5 mg/kg i.p. in the rat, the antagonist effects of FNA (as its HCl salt) lasted at least three days (FIG. 1). The vertical bars represent 95% confidence intervals of the ED50 values.
# effects of morphine [7] = assay: Duration of inhibitory effect on morphine, rat; assay type: in vivo; details: HCl salt; 5 mg/kg i.p. in the rat
# From the text: as §1
# [8] = Toxic effects at a single dose; assay type: in vivo; details: single dose which completely blocks morphine for at least three days
smiles,measurement,setting,value
O=C(/C=C/C(=O)OCCc1ccccc1)N[C@@H]1CC[C@@]2(O)[C@H]3Cc4ccc(O)c5c4[C@@]2(CCN3CC2CC2)[C@H]1O5 [VIII],"IC50 Ratio, morphine IC50 (treated)/morphine IC50 (control)",[1]; test compound 2 × 10^-8 M,12.8
CC(C)C[C@H](NC(=O)[C@H](Cc1ccccc1)NC(=O)CNC(=O)CNC(=O)[C@@H](N)Cc1ccc(O)cc1)C(=O)O [enkephalin],hypotensive action,[2],potent hypotensive agents
O=C(/C=C/C(=O)OCc1ccccc1)N[C@@H]1CC[C@@]2(O)[C@H]3Cc4ccc(O)c5c4[C@@]2(CCN3CC2CC2)[C@H]1O5 [VII],"IC50 Ratio, morphine IC50 (treated)/morphine IC50 (control)",[1]; test compound 2 × 10^-8 M,3.4
Oc1ccc2c3c1O[C@H]1[C@H](N=C=S)CC[C@@]4(O)[C@@H](C2)N(CC2CC2)CC[C@]314 [XIII],"IC50 Ratio, morphine IC50 (treated)/morphine IC50 (control)",[1]; test compound 2 × 10^-8 M,2.3
CSCC[C@H](NC(=O)[C@H](Cc1ccccc1)NC(=O)CNC(=O)[C@@H](C)NC(=O)[C@@H](N)Cc1ccc(O)cc1)C(N)=O [D-Ala^2 -- Met-- enkephlin- Amide],IC50,"[3]; after FNA (2 × 10^-8) incubated 30 minutes, washed 20 times, read-out: IC50 After FNA",0.0291 µM
same,IC50 Ratio FNA/Control,[3],6.9
same,IC50,"[3]; control, before FNA, guinea pig ileum, read-out: IC50 Control",0.0042 µM
CCCOC(=O)/C=C/C(=O)N[C@@H]1CC[C@@]2(O)[C@H]3Cc4ccc(O)c5c4[C@@]2(CCN3CC2CC2)[C@H]1O5 [VI],"IC50 Ratio, morphine IC50 (treated)/morphine IC50 (control)",[1]; test compound 2 × 10^-8 M,4.4
CC(=O)/C=C/C(=O)N[C@@H]1CC[C@@]2(O)[C@H]3Cc4ccc(O)c5c4[C@@]2(CCN3CC2CC2)[C@H]1O5 [IX],"IC50 Ratio, morphine IC50 (treated)/morphine IC50 (control)",[1]; test compound 2 × 10^-8 M,6.4
"C=CCN1CC[C@]23c4c5ccc(O)c4O[C@H]2C(=O)CC[C@@]3(O)[C@H]1C5 [naloxone, reference compound]",block of β-endorphin-induced stimulation of food intake,[4],blocked
same,antagonistic effect,effects of morphine [5]; tested 2 hours after administration,its effect had already dissipated
CCOC(=O)/C=C/C(=O)N[C@@H]1CC[C@@]2(O)[C@H]3Cc4ccc(O)c5c4[C@@]2(CCN3CC2CC2)[C@H]1O5 [V],"IC50 Ratio, morphine IC50 (treated)/morphine IC50 (control)",[1]; test compound 2 × 10^-8 M,2.8
C=CCN1CC[C@]23c4c5ccc(O)c4O[C@H]2[C@@H](O)C=C[C@H]3[C@H]1C5 [Nalorphine],IC50,"[3]; Cavia porcellus, 0.5 h, after FNA (2 × 10^-8) incubated 30 minutes, washed 20 times, read-out: IC50 After FNA",0.0252 µM
same,IC50,"[3]; Cavia porcellus, control, before FNA, guinea pig ileum, read-out: IC50 Control",0.0281 µM
same,IC50 Ratio FNA/Control,[3],0.9
C=C(Cl)C(=O)N[C@@H]1CC[C@@]2(O)[C@H]3Cc4ccc(O)c5c4[C@@]2(CCN3CC2CC2)[C@H]1O5 [XI],"IC50 Ratio, morphine IC50 (treated)/morphine IC50 (control)",[1]; test compound 2 × 10^-8 M,8.2
"COC(=O)/C=C/C(=O)N[C@@H]1CC[C@@]2(O)[C@H]3Cc4ccc(O)c5c4[C@@]2(CCN3CC2CC2)[C@H]1O5 [FNA, fumarnaltrexamine]",analgesia,[6],reversible analgesia
same,reversal of analgesia by its own antagonistic properties,[6],not reversed by its own antagonistic properties
same,duration of antagonist effects,morphine analgesia,at least three
same,inhibition of agonist effects of nalorphine or pentazocine,"[3]; FNA 2×10^-8 M, 30 minutes",did not inhibit the agonist effects of nalorphine or pentazocine
same,inhibition of response to morphine and enkephalin,"[3]; FNA 2×10^-8 M, 30 minutes",inhibited irreversibly
same,"block of agonist effects of morphine, enkephalin, pentazocine and nalorphine (selectivity)","[3]; electrically stimulated guinea pig ileum, summary statement in description",irreversibly block the agonist effects of morphine or enkephalin but not the agonist effects of pentazocine or nalorphine
same,duration of complete block of the effects of morphine,effects of morphine [5]; single dose,at least three
same,duration of antagonist effects,effects of morphine [7],at least three
same,toxic effects,[8],no toxic effects
C=CCN1CC[C@]23c4c5ccc(O)c4O[C@H]2[C@H](NC(=O)/C=C/C(=O)OC)CC[C@@]3(O)[C@H]1C5 [XIV],"IC50 Ratio, morphine IC50 (treated)/morphine IC50 (control)",[1]; test compound 10^-7 M,6.4
C=CC(=O)N[C@@H]1CC[C@@]2(O)[C@H]3Cc4ccc(O)c5c4[C@@]2(CCN3CC2CC2)[C@H]1O5 [X],"IC50 Ratio, morphine IC50 (treated)/morphine IC50 (control)",[1]; test compound 2 × 10^-8 M,1.9
O=C(CI)N[C@@H]1CC[C@@]2(O)[C@H]3Cc4ccc(O)c5c4[C@@]2(CCN3CC2CC2)[C@H]1O5 [XII],"IC50 Ratio, morphine IC50 (treated)/morphine IC50 (control)",[1]; test compound 10^-6 M,25.6
